Measured values: US9463251B2, “Anti-ETBR antibodies and immunoconjugates” (Genentech, Inc., priority 2012, dated 2016)
Starred links: 1 amine or outer side, 2 acyl side, 3 side chain; linkers in the order of their positions; H or OH if unused. Non-standard residues stand in square brackets, D forms with d. Residues, ends and D or L forms follow the SMILES beside them. *: point of attachment. Dolaproine = CO[C@@H]([C@@H]1CCCN1)[C@@H](C)C(=O)O; Hexanoyl(6-maleimido) = O=C1C=CC(=O)N1CCCCCC(=O)*; Dil = CC[C@H](C)[C@H](NC)[C@@H](CC(=O)O)OC; PABC = O=C(OCc1ccc(N[*:1])cc1)[*:2]; X1 = C[C@@H](N*)[C@@H](O)c1ccccc1; Cit = NC(=O)NCCC[C@H](N)C(=O)O; NMeV = CN[C@H](C(=O)O)C(C)C

Columns and labels:
Type in all cases: cell-based
Conditions in all cases: five days, read-out: EC50 (free linker-drug, without antibody)
[1] = system: Parental UACC-257X2.2 cells; experiment: In vitro cell proliferation (CellTiter-Glo), parental cells
Protocol: (§1) In vitro cell proliferation of the cell lines in the presence of the immunoconjugates was assessed. Cells were plated at 1,500 cells per well in 50 μL of normal growth medium in 96-well clear-bottom plates. Twenty-four hours later, an additional 50 μL of culture medium with serial dilutions of immunoconjugates (ch5E9-vc-MMAE or control anti-gD-vc-MMAE) were added to triplicate wells. Five days later, cell survival was determined using CellTiter-Glo Luminescent Cell Viability Reagent (G7572, Promega Corporation, Madison, Wis.) using an EnVision 2101 Mutilabel Reader (Perkin-Elmer, Waltham, Mass.).

[2] = system: In vivo-derived resistant UACC-257X2.2 cells; experiment: In vitro cell proliferation (CellTiter-Glo), in vivo-derived resistant cells
Protocol: Tumor #359 was harvested and the cells were dissociated for growth in vitro (referred to herein as in vivo-derived resistant UACC-257X2.2 cells).
(§2) In vivo- and in vitro-derived resistant UACC-257X2.2 cells were then assayed for sensitivity to increasing concentrations of anti-ETBR-vc-MMAE.
as §1

[3] = system: In vitro-derived resistant UACC-257X2.2 cells; experiment: In vitro cell proliferation (CellTiter-Glo), in vitro-derived resistant cells
Protocol: For resistance developed in vitro, UACC-257X2.2 cells were adapted to increasing concentrations of anti-ETBR-vc-MMAE in culture dishes over the course of two months.
as §2, §1

Q: Which results are given for `CC[C@H](C)[C@@H]([C@@H](CC(=O)N1CCC[C@H]1[C@H](OC)[C@@H](C)C(=O)N[C@H](C)[C@@H](O)c1ccccc1)OC)N(C)C(=O)[C@@H](NC(=O)[C@H](C(C)C)N(C)C(=O)OCc1ccc(NC(=O)[C@H](CCCNC(N)=O)NC(=O)[C@@H](NC(=O)CCCCCN2C(=O)C=CC2=O)C(C)C)cc1)C(C)C` [MC-vc-PAB-MMAE] ({Hexanoyl(6-maleimido)}-V[Cit][PABC][NMeV]V[Dil][Dolaproine]-X1)?
A: EC50 [1]: 0.28 nM; EC50 [2]: 0.77 nM; EC50 [3]: 3.5 nM
